Measurements published in patent publication US6737383B1, “Herbicidal oxadiazolidines” (priority 1999, dated 2004).

Columns and labels:
cocklebur = experiment: Test B pre/postemergence cocklebur; format: in vivo, Xanthium strumarium
Outline: (§1)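 Response is a visual 0-to-10 score relative to untreated plants, where 0 means no effect and 10 means complete control, taken twelve to sixteen days after application. Treatments went onto soil at planting and onto foliage of 1- to 4-leaf plants, using a surfactant-containing non-phytotoxic solvent.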

morningglory = experiment: Test B pre/postemergence morningglory; format: in vivo, Ipomoea hederacea
Outline: as §1

pigweed = experiment: Test B pre/postemergence pigweed; format: in vivo, Amaranthus retroflexus
Outline: as §1

soybean = experiment: Test B pre/postemergence soybean; format: in vivo, Glycine max
Outline: as §1

[1] = Postemergence, Rate 31 g/ha, visual rating, scale 0 to 10 (0 no effect, 10 complete control)
[2] = Preemergence, Rate 31 g/ha, visual rating, scale 0 to 10 (0 no effect, 10 complete control)
[3] = Preemergence, Rate 62 g/ha, scale of 0 to 10 where 0 is no effect and 10 is complete control
[4] = Preemergence, Rate 250 g/ha, scale of 0 to 10 where 0 is no effect and 10 is complete control
[5] = Rate 62 g/ha, Postemergence, scale 0 to 10 (0 no effect, 10 complete control)
[6] = Rate 125 g/ha, Postemergence, scale of 0 to 10 where 0 is no effect and 10 is complete control
[7] = Rate 125 g/ha, Preemergence, scale of 0 to 10 where 0 is no effect and 10 is complete control
[8] = Rate 250 g/ha, Postemergence, scale of 0 to 10 where 0 is no effect and 10 is complete control
[9] = Preemergence, Rate 500 g/ha, scale of 0 to 10 where 0 is no effect and 10 is complete control
[10] = Rate 500 g/ha, Postemergence, scale 0 to 10, 0 no effect, 10 complete control

Row | SMILES | Cocklebur plant response rating (cocklebur; [3]) | Cocklebur plant response rating (cocklebur; [4]) | Cocklebur plant response rating (cocklebur; [5]) | Cocklebur plant response rating (cocklebur; [6]) | Plant response rating, Cocklebur (cocklebur; [8]) | Morningglory plant response rating (morningglory; [3]) | Morningglory plant response rating (morningglory; [4]) | Morningglory plant response rating (morningglory; [5]) | Morningglory plant response rating (morningglory; [6]) | Plant response rating, Morningglory (morningglory; [8]) | Redroot pigweed plant response rating (pigweed; [3]) | Redroot pigweed plant response rating (pigweed; [4]) | Redroot pigweed plant response rating (pigweed; [5]) | Redroot pigweed plant response rating (pigweed; [6]) | Plant response rating, Redroot pigweed (pigweed; [8]) | Soybean plant response rating (soybean; [3]) | Soybean plant response rating (soybean; [4]) | Soybean plant response rating (soybean; [5]) | Soybean plant response rating (soybean; [6]) | Plant response rating, Soybean (soybean; [8]) | also measured
1 | CC(C)N(C(=O)n1oc(=O)n(CCCCF)c1=O)c1ccc(F)cc1 [Compound 289] | 0 | 0 | 0 | 1 | 2 | 0 | 0 | 3 | 6 | 8 | 5 | 8 | 0 | 5 | 7 | 0 | 0 | 2 | 3 | 4 | Cocklebur plant response rating (cocklebur; [1]): 0; Cocklebur plant response rating (cocklebur; [2]): 0; Cocklebur plant response rating (cocklebur; [7]): 0; Morningglory plant response rating (morningglory; [1]): 2; Morningglory plant response rating (morningglory; [2]): 0; Morningglory plant response rating (morningglory; [7]): 0; Redroot pigweed plant response rating (pigweed; [1]): 0; Redroot pigweed plant response rating (pigweed; [2]): 5; Redroot pigweed plant response rating (pigweed; [7]): 6; Soybean plant response rating (soybean; [1]): 0; Soybean plant response rating (soybean; [2]): 0; Soybean plant response rating (soybean; [7]): 0
2 | CCN(C(=O)n1oc(=O)n(C2CC2)c1=O)C1CCCCC1 [Compound 298] | 0 | 0 | 0 | 0 | 0 | 0 | 0 | 0 | 3 | 3 | 0 | 0 | 0 | 0 | 0 | 0 | 0 | 0 | 3 | 3 | Cocklebur plant response rating (0 to 10 scale) (cocklebur; Preemergence, Rate 125 g/ha): 0; Plant response rating, Cocklebur (cocklebur; [9]): 0; Cocklebur plant response rating (cocklebur; [10]): 0; Morningglory plant response rating (0 to 10 scale) (morningglory; Preemergence, Rate 125 g/ha): 0; Plant response rating, Morningglory (morningglory; [9]): 0; Redroot pigweed plant response rating (0 to 10 scale) (pigweed; Preemergence, Rate 125 g/ha): 0; Plant response rating, Redroot pigweed (pigweed; [9]): 0; Soybean plant response rating (0 to 10 scale) (soybean; Preemergence, Rate 125 g/ha): 0; Plant response rating, Soybean (soybean; [9]): 0
3 | Cc1cccc(C(C)(C)C)c1-n1c(=O)on(C(=O)N(c2ccccc2)C(C)C)c1=O [Compound 303] | 0 | 0 | 0 | 0 | 0 | 0 | 0 | 0 | 0 | 0 | 0 | 0 | 0 | 0 | 2 | 0 | 0 | 2 | 2 | 3 | Cocklebur plant response rating (0 to 10 scale) (cocklebur; Preemergence, Rate 125 g/ha): 0; Cocklebur plant response rating (cocklebur; [9]): 0; Cocklebur plant response rating (cocklebur; [10]): 0; Morningglory plant response rating (0 to 10 scale) (morningglory; Preemergence, Rate 125 g/ha): 0; Morningglory plant response rating (morningglory; [9]): 3; Redroot pigweed plant response rating (0 to 10 scale) (pigweed; Preemergence, Rate 125 g/ha): 0; Redroot pigweed plant response rating (pigweed; [9]): 0; Soybean plant response rating (0 to 10 scale) (soybean; Preemergence, Rate 125 g/ha): 0; Soybean plant response rating (soybean; [9]): 0
4 | CCc1cccc(CC)c1-n1c(=O)on(C(=O)N(c2ccc(F)cc2)C(C)C)c1=O [Compound 304] |  | 0 | 0 | 0 | 0 | 0 | 0 | 3 | 3 | 3 | 0 | 0 | 3 | 3 | 5 | 0 | 0 | 3 | 4 | 5 | Cocklebur plant response rating (0 to 10 scale) (cocklebur; Preemergence, Rate 125 g/ha): 0; Cocklebur plant response rating (cocklebur; [9]): 0; Cocklebur plant response rating (cocklebur; [10]): 0; Morningglory plant response rating (0 to 10 scale) (morningglory; Preemergence, Rate 125 g/ha): 0; Morningglory plant response rating (morningglory; [9]): 0; Redroot pigweed plant response rating (0 to 10 scale) (pigweed; Preemergence, Rate 125 g/ha): 0; Redroot pigweed plant response rating (pigweed; [9]): 0; Soybean plant response rating (0 to 10 scale) (soybean; Preemergence, Rate 125 g/ha): 0; Soybean plant response rating (soybean; [9]): 0
5 | CC(C)N(C(=O)n1oc(=O)n(Cc2ccccc2-c2ccccc2)c1=O)c1ccc(F)cc1 [Compound 313] | 0 | 0 | 0 | 0 | 0 | 0 | 0 | 2 | 3 | 3 | 0 | 0 | 0 | 0 | 2 | 0 | 0 | 1 | 2 | 3 | Cocklebur plant response rating (0 to 10 scale) (cocklebur; Preemergence, Rate 125 g/ha): 0; Cocklebur plant response rating (cocklebur; [9]): 0; Cocklebur plant response rating (cocklebur; [10]): 0; Morningglory plant response rating (0 to 10 scale) (morningglory; Preemergence, Rate 125 g/ha): 0; Morningglory plant response rating (morningglory; [9]): 0; Redroot pigweed plant response rating (0 to 10 scale) (pigweed; Preemergence, Rate 125 g/ha): 0; Redroot pigweed plant response rating (pigweed; [9]): 0; Soybean plant response rating (0 to 10 scale) (soybean; Preemergence, Rate 125 g/ha): 0; Soybean plant response rating (soybean; [9]): 0
